From PMC9025336 (Antibiotics, 2022)
In brackets after ≈: the same amount, converted by molar mass. Square brackets hold non-standard residues; d marks the D form. Ends that are not written are not given here. Peptide text beside a SMILES is read from it.

Key:
E. coli BW25113 = assay type: cell-based, Escherichia coli; conditions: BW25113, 2 h
Experimental: The minimal inhibitory concentrations (MIC) were determined at least twice in triplicate using a liquid broth microdilution assay in sterile 96-well plates and a total volume of 100 μL per well. Aqueous peptide solutions were serially 2-fold diluted in 25% MHBII or 33% TSB medium in a volume of 50 µL. An overnight culture was diluted in 25% MHBII or 33% TSB medium to 1.5 × 10^7 CFU/mL, and an aliquot of 50 μL was added to each well. The final cell count in each well was 7.5 × 10^6 CFU/mL. […] The turbidity of each well was measured at a wavelength of 600 nm. The MIC was defined as the lowest peptide concentration where the turbidity was identical to medium only.

[1] = system: E. coli Rosetta DE3 pLysS; test: MIC, liquid broth microdilution; assay type: cell-based, Escherichia coli; conditions: 25% MHBII medium, 7.5 × 10^6 CFU/mL, 37 °C, 20 ± 2 h, turbidity 600 nm, at least twice in triplicate
Experimental: The minimal inhibitory concentrations (MIC) were determined at least twice in triplicate using a liquid broth microdilution assay in sterile 96-well plates and a total volume of 100 μL per well. Aqueous peptide solutions were serially 2-fold diluted in 25% MHBII or 33% TSB medium in a volume of 50 µL. An overnight culture was diluted in 25% MHBII or 33% TSB medium to 1.5 × 10^7 CFU/mL, and an aliquot of 50 μL was added to each well. The final cell count in each well was 7.5 × 10^6 CFU/mL. The plates were incubated at 37 °C for 20 ± 2 h. The turbidity of each well was measured at a wavelength of 600 nm. The MIC was defined as the lowest peptide concentration where the turbidity was identical to medium only.

[2] = biological target: BW25113 ribosome extract, ribosomal binding site of Onc112; test: Fluorescence polarization competition against cf-Onc112 (Ki); set-up: species or system Escherichia coli; conditions: unlabeled PrAMP against cf-labeled Onc112, calculated from IC50, 95% confidence interval in brackets
Experimental: (§1) E. coli BW25113 and E. coli Rosetta pLysS were cultivated in LB medium and harvested at an OD600 of ~4 by centrifugation (5000× g, 30 min, 4 °C). The cell pellets were washed by resuspension in ribosome preparation buffer (20 mmol/L Hepes-KOH, 6 mmol/L MgCl2, 30 mmol/L NH4Cl, pH 7.6, 4°C) and subsequent centrifugation (5000× g, 30 min, 4 °C). Cell pellets were suspended in ribosome preparation buffer ([…]) containing freshly added 2-mercapotethanol (4 mmol/L). Lysozyme was added to the resuspended cells and incubated on ice for 30 min. The cell suspension was disrupted six times using a FastPrep-24^TM 5G instrument (MP Biomedicals, Solon, OH, USA) with BigPrep 50 mL setting (40 s, 4.0 m/s), incubated with DNase I (5 mL/L) on ice for one hour and centrifuged (16,000× g, 30 min, 4 °C). The cell debris was removed from the supernatant by centrifugation (32,000× g, 60 min, 4 °C), and the supernatant was centrifuged again (165,000× g, 17 h, 4 °C). The pellet was resuspended in ribosome preparation buffer (0.1 mL per g cell pellet) to obtain the 70S ribosome extract and stored at −80 °C. The ribosome concentration was estimated by recording the absorbance at 260 nm (1 AU for a ribosome concentration of 28 nmol/L). The molecular weight of the 70S E. coli ribosome was assumed to be 2.3 MDa.
(§2) Ki was determined for ribosome extracts using cf-labeled and unlabeled peptides in ribosome preparation buffer. Black 384-well plates were prepared as described above. Unlabeled peptides or antibiotics (20 µL, 656 µmol/L) were added and 2-fold serially diluted in 23 wells in ribosome preparation buffer. A ribosome solution was prepared by adjusting the ribosome concentration to ~90% of the upper Kd plateau obtained for the cf-labeled peptide to be studied and added to each well (10 µL). […] The fluorescence polarization was measured on a PARADIGMTM microplate reader in the top read position (λexc = 485 nm, λem = 535 nm) in triplicate on at least two different days. […] Inhibition constants, Ki, were calculated as described by Mathias and Jung.

[3] = biological target: BW25113 ribosome extract, ribosomal binding site of Api137; test: Fluorescence polarization competition against cf-Api137 (Ki); set-up: species or system Escherichia coli; conditions: unlabeled PrAMP against cf-labeled Api137, calculated from IC50, 95% confidence interval in brackets
Experimental: as §1, §2

[4] = system: 70S ribosome extract of E. coli Rosetta DE3 pLysS; test: Fluorescence polarization, Kd of cf-labeled peptides; assay type: binding, Escherichia coli; conditions: determined for the cf-labeled peptide, 28 °C, 90 min, 95% confidence interval in brackets, triplicate on at least two days, read-out: Kd, Ros
Experimental: as §1
(§3) Kd was determined using a ribosome extract and cf-labeled peptides in ribosome preparation buffer. Briefly, black 384-well plates (flat bottom, Greiner Bio-One GmbH) were blocked with casein (0.5%, w/v) in phosphate buffer containing 0.05% (v/v) Tween 20 at 4 °C overnight and washed three times with phosphate buffer. A 2-fold dilution series of the ribosome extract (20 μL per well) in ribosome preparation buffer was prepared in a black 384-well plate (23 dilution steps). The cf-labeled peptide was dissolved in ribosome preparation buffer (20 μL, 40 nmol/L), added to each well, and incubated at 28 ± 1 °C. After 90 min, the fluorescence polarization was measured on a PARADIGMTM microplate reader (Beckman Coulter, Salzburg, Austria) in the top read position (λexc = 485 nm, λem = 535 nm) in triplicate on at least two different days. Data were fitted to a nonlinear, dose–response logistical transition equation [y= y0 + a/(1 + (x/x0)b)] using the Levenberg–Marquardt algorithm, with dissociation constants (Kd) represented by the x0 coefficients (GraphPad Prism for Windows v. 5.02, San Diego, CA, USA).

[5] = system: 70S ribosome extract of E. coli BW25113; test: as above; assay type: binding, Escherichia coli
Experimental: as §1, §3

[6] = system: 70S ribosome, ribosomal binding site of Api805; test: Fluorescence polarization competition with cf-Api805; set-up: species or system Escherichia coli; conditions: Figure S2, twice in triplicate
Experimental: Ki was determined for ribosome extracts using cf-labeled and unlabeled peptides in ribosome preparation buffer. Black 384-well plates were prepared as described above. Unlabeled peptides or antibiotics (20 μL, 656 μmol/L) were added and 2-fold serially diluted in 23 wells in ribosome preparation buffer. […] The fluorescence polarization was measured on a […] microplate reader in the top read position (λexc = 485 nm, λem = 535 nm) in triplicate on at least two different days. […] Inhibition constants, Ki, were calculated as described by Mathias and Jung. page 9: 140 140 120 120 100 100 80 80 60 60 40 40 […]. […]. […] 0 0 -20 -20 10 -2 1 10 2 10 4 10 6 10 -2 1 10 2 10 4 10 6 Pept ide Concent r at ion [ nM] Pept ide Concent r at ion [ nM] 140 140 120 120 100 100 80 80 60 60 40 40 20 Chlor […] ol vs. […] -20 -20 10 -2 1 10 2 10 4 10 6 10 -2 1 10 2 10 4 10 6 Ant ibiot ic Concent r at ion [ nM] Antibiotic Concentration [nM] 140 120 100 80 60 40 […] -20 10 -2 1 10 2 10 4 10 6 Ant ibiot ic Concent r at ion [ nM] Figure S2. […] tested as control in competition with Api137 or erythromycin. Experiments were done twice in triplicates. Error bars show the standard deviation of all six replicates. The horizontal dotted line separates positive and negative ranges on the Y-axis. - S9 - (also on this page, place not known: […]

[7] = biological target: 70S ribosome extract of E. coli BW25113 (E. coli BW25113 (endogenous)); test: fluorescence polarisation; 2-fold dilution series of the ribosome extract (23 steps) mixed with cf-labeled peptide (20 µL, 40 nmol/L) in ribosome preparation buffer (20 mmol/L Hepes-KOH, 6 mmol/L MgCl2, 30 mmol/L NH4Cl, pH 7.6); 28 ± 1 °C, 90 min; Kd = x0 of a dose-response fit
[8] = biological target: 70S ribosome extract of E. coli Rosetta DE3 pLysS (E. coli Rosetta DE3 pLysS (endogenous)); test: as above
[9] = biological target: 70S ribosome extract of E. coli BW25113 (E. coli BW25113 (endogenous)); test: fluorescence polarisation; competition: unlabeled peptide (2-fold series from 656 µmol/L) pre-incubated with BW25113 ribosome extract (28 °C, 90 min), then cf-Onc112 (10 µL, 80 nmol/L) added (28 °C, 90 min); ribosome preparation buffer; Ki calculated from IC50
[10] = biological target: 70S ribosome extract of E. coli BW25113 (E. coli BW25113 (endogenous)); test: fluorescence polarisation; competition: unlabeled peptide (2-fold series from 656 µmol/L) pre-incubated with BW25113 ribosome extract (28 °C, 90 min), then cf-Api137 (10 µL, 80 nmol/L) added (28 °C, 90 min); ribosome preparation buffer; Ki calculated from IC50

In the case of CC[C@H](C)[C@H](NC(=O)[C@@H]1CCCN1C(=O)[C@H](CCCNC(=N)N)NC(=O)[C@H](CC(N)=O)NC(=O)[C@H](CC(N)=O)NC(=O)CN)C(=O)N[C@@H](Cc1ccc(O)cc1)C(=O)N[C@H](C(=O)N1CCC[C@H]1C(=O)N[C@@H](CCCNC(=N)N)C(=O)N1CCC[C@H]1C(=O)N[C@@H](CCCNC(=N)N)C(=O)N1CCC[C@H]1C(=O)N1CCC[C@H]1C(=O)N[C@@H](Cc1c[nH]cn1)C(=O)N1CCC[C@H]1C(=O)N[C@@H](CCCNC(=N)N)C(=O)N[C@@H](CC(C)C)C(=O)O)[C@@H](C)CC [Api801] (H-GNNRPIYIPRPRPPHPRL-OH), the “MIC, BW” value (E. coli BW25113) is reported as 16 µg/mL (≈ 7.44 µM) and the “MIC, Ros” value [1] is reported as 4 µg/mL (≈ 1.86 µM).

For CC[C@H](C)[C@H](NC(=O)[C@@H](CCCNC(=N)N)NC(=O)[C@H](CCCNC(=N)N)NC(=O)[C@@H]1CCCN1C(=O)[C@@H]1CCCN1C(=O)[C@H](CCCNC(=N)N)NC(=O)[C@@H]1CCCN1C(=O)[C@H](CCCNC(=N)N)NC(=O)[C@@H]1CCCN1C(=O)[C@H](CC(C)C)NC(=O)[C@H](Cc1ccc(O)cc1)NC(=O)[C@@H]1CCCN1C(=O)[C@@H]1CCCN1C(=O)[C@H](CCCCN)NC(=O)[C@H](CC(=O)O)NC(=O)[C@@H](N)C(C)C)C(=O)N[C@@H](Cc1ccc(O)cc1)C(=O)N[C@@H](CC(N)=O)C(=O)N[C@H](CCCNC(=N)N)C(N)=O [Onc112] (H-VDKPPYLPRPRPPR[dR]IYN[dR]-NH2), the “MIC, BW” value (E. coli BW25113) was 4 µg/mL (≈ 1.67 µM), the “MIC, Ros” value [1] was 4 µg/mL (≈ 1.67 µM) and the Ki [2] was 8 nM. The Ki [3] was 606 nM, the Kd [4] was 51 nM and the Kd ([5]; determined for the cf-labeled peptide, BW25113 ribosome extract, 28 °C, 90 min, 95% confidence interval in brackets, triplicate on at least two days, read-out: Kd, BW) was 27 nM.

O=C(N[C@H](CO)[C@H](O)c1ccc([N+](=O)[O-])cc1)C(Cl)Cl [chloramphenicol] was tested, and the “inhibition of the binding of cf-labeled Api805” value (from here on “inhibition”) [6] was “none inhibited”.

With CC[C@H]1OC(=O)[C@H](C)[C@@H](O[C@H]2C[C@@](C)(OC)[C@@H](O)[C@H](C)O2)[C@H](C)[C@@H](O[C@@H]2O[C@H](C)C[C@H](N(C)C)[C@H]2O)[C@](C)(O)C[C@@H](C)C(=O)[C@H](C)[C@@H](O)[C@]1(C)O [erythromycin] the “inhibition” value [6] was “none inhibited”.

For NC[C@H]1O[C@H](O[C@H]2[C@H](O)[C@@H](O[C@H]3O[C@H](CO)[C@@H](O)[C@H](N)[C@H]3O)[C@H](N)C[C@@H]2N)[C@H](O)[C@@H](O)[C@@H]1O [kanamycin], the “inhibition” value [6] was “none inhibited”.

With cf-Api88 (peptide) the Kd [7] was 906 nM.

cf-Api137 (peptide) showed a Kd [7] of 382 nM and a Kd [8] of 198 nM.

With “cf-Api805: Api805 labeled with 5(6)-carboxyfluorescein at the N-terminus ({5(6)‑carboxyfluorescein}-GNNRPIYIPRPRPPHPRPIRV-OH)” the “Kd values of cf-labeled peptides, in words” value ([5]; 70S ribosome, refers to Table 2) was “nanomolar range”.

Molecule VDKPPYLPRPRPPR[dR]IYN[dR]-NH2 [Onc112] has a Ki [9] of 8 nM and a Ki [10] of 606 nM.

In the case of GNNRPIYIPRPRPPHPRL-OH [Api801], the Ki [9] is reported as 247 nM and the Ki [10] is reported as 2 nM.

{5(6)‑carboxyfluorescein}-GNNRPIYIPRPRPPHPRPIRV-OH [cf-Api805] was tested, and the Kd [7] was 557 nM and the Kd [8] was 515 nM.

{5(6)‑carboxyfluorescein}-VDKPPYLPRPRPPR[dR]IYN[dR]-NH2 [cf-Onc112] gave a Kd [7] of 27 nM and a Kd [8] of 51 nM.
